Here are results for 9 compounds from ChEMBL document CHEMBL4613224, “Synthesis, in-vitro antiprotozoal activity and molecular docking study of isothiocyanate derivatives” (Bioorg Med Chem, 2020).

Activity calls are given as the source filed them. The rule behind the calls is not given here.

Data set [1] deals with Trypanosoma brucei rhodesiense. Kind of data set: Antitrypanosomal activity against bloodstream Trypanosoma brucei rhodesiense STIB900 assessed as parasite growth inhibition measured after 70 hrs by Alamar blue assay. In kind it is functional, organism-based. The note with it: STIB900, 70 h. For orientation: Alamar Blue is a resazurin reagent that responds to reducing activity.

Data set [2] has as its system Trypanosoma cruzi. Kind of data set: Antitrypanosomal activity against Trypanosoma cruzi Tulahuen C4 trypomastigotes infected in rat L6 cells assessed as parasite growth inhibition at 2 ug/ml measured after 96 hrs by inverted microscopy analysis relative to control. Format: functional. The note with it: for inhibition at 2 µg/mL: Tulahuen C4, L6, 96 h.
Data set [3] has as its system Leishmania donovani. Kind of data set: Antileishmanial activity against Leishmania donovani MHOM-ET-67/L82 axenic amastigotes assessed as parasite growth inhibition measured after 72 hrs by Alamar blue based inverted microscopy analysis. Conditions: MHOM-ET-67/L82, 72 h. Format: functional, organism-based.
The test system of the next data set is L6. Kind of data set: Cytotoxicity against rat L6 cells assessed as reduction in cell viability measured after 72 hrs by Alamar blue based inverted microscopy analysis. The note with it: L6, 72 h, read-out: IC50.
The test system of data set [4] is Plasmodium falciparum. Nature of the data set: Antiplasmodial activity against Plasmodium falciparum NF54 measured after 24 hrs in presence of [3H] hypoxanthine by liquid scintillation counter analysis. In kind it is functional, organism-based.
Data set [5] can be described thus: Selectivity index, ratio of IC50 for rat L6 cells assessed as reduction in cell viability measured after 72 hrs by Alamar blue based inverted microscopy analysis to IC50 for bloodstream Trypanosoma brucei rhodesiense STIB900 assessed as parasite growth inhibition measured after 70 hrs by Alamar blue assay. In kind it is toxicity. The note with it: read-out: Ratio IC50.

Data set [6] in a line: Selectivity index, ratio of IC50 for rat L6 cells assessed as reduction in cell viability measured after 72 hrs by Alamar blue based inverted microscopy analysis to IC50 for Leishmania donovani MHOM-ET-67/L82 axenic amastigotes assessed as parasite growth inhibition measured after 72 hrs by Alamar blue based inverted microscopy analysis. The note with it: L6 cells, read-out: Ratio IC50. Format: toxicity.

A short description of data set [7]: Selectivity index, ratio of IC50 for rat L6 cells assessed as reduction in cell viability measured after 72 hrs by Alamar blue based inverted microscopy analysis to IC50 for Plasmodium falciparum NF54 measured after 24 hrs in presence of [3H] hypoxanthine by liquid scintillation counter analysis. The note with it: read-out: Ratio IC50. Format: toxicity.
Data set [8] has as its system Trypanosoma brucei rhodesiense. Kind of data set: Antitrypanosomal activity against bloodstream Trypanosoma brucei rhodesiense STIB900 assessed as parasite growth inhibition at 2 ug/ml measured after 70 hrs by Alamar blue assay relative to control. Conditions: STIB900, 70 h. In kind it is functional.
The subject of data set [9] is Leishmania donovani. Nature of the data set: Antileishmanial activity against Leishmania donovani MHOM-ET-67/L82 axenic amastigotes assessed as parasite growth inhibition at 2 to 10 ug/ml measured after 72 hrs by Alamar blue based inverted microscopy analysis relative to control. Format: functional.
In data set [10] the test system is Leishmania donovani. Kind of data set: Potency index, ratio of miltefosine IC50 to test compound IC50 for antileishmanial activity against Leishmania donovani MHOM-ET-67/L82 axenic amastigotes assessed as parasite growth inhibition measured after 72 hrs by Alamar blue based inverted microscopy analysis. Format: functional.
Data set [11] has as its system Trypanosoma cruzi. Kind of data set: Antitrypanosomal activity against Trypanosoma cruzi Tulahuen C4 trypomastigotes infected in rat L6 cells assessed as parasite growth inhibition measured after 96 hrs by inverted microscopy analysis. Format: functional, organism-based. The note with it: Tulahuen C4, L6, 96 h.
The nature of data set [12]: Selectivity index, ratio of IC50 for rat L6 cells assessed as reduction in cell viability measured after 72 hrs by Alamar blue based inverted microscopy analysis to IC50 for Trypanosoma cruzi Tulahuen C4 trypomastigotes infected in rat L6 cells assessed as parasite growth inhibition measured after 96 hrs by inverted microscopy analysis. Format: toxicity. The note with it: read-out: Ratio IC50.

Data set [13] relates to Plasmodium falciparum. Nature of the data set: Antiplasmodial activity against Plasmodium falciparum K1 assessed as reduction in parasite growth by [3H]-hypoxanthine incorporation assay. In kind it is functional, organism-based.
The subject of data set [14] is Trypanosoma brucei brucei. Kind of data set: Antitrypanosomal activity against Trypanosoma brucei brucei assessed as parasite growth inhibition. Format: functional, organism-based.

As usually defined, the IC50 is the concentration that gives 50% inhibition. What is called inhibition is the percentage by which the read-out fell short of the control. Turning to `C[C@@H](CCCN=C=S)[C@H]1CC[C@H]2[C@@H]3CC[C@@H]4C[C@H](O)CC[C@]4(C)[C@H]3C[C@H](O)[C@]12C`, the IC50 in [1] was 1100 nM; in the data set on Leishmania donovani [3], 400 nM; in the data set with L6 it was 3600 nM; in the data set on Plasmodium falciparum [4] it was 3400 nM. Besides, the inhibition entry with Trypanosoma cruzi [2] was “inactive”. The selectivity ratio at 72 h in data set [5] worked out at 3.3; in data set [6] it was 9.9; in data set [7], 1.1. In data set [8], the inhibition at 2 µg/mL was over 50%. The “inhibition (INH)” value in the data set on Leishmania donovani [9] was over 90%. Besides, the “Ratio IC50” value with Leishmania donovani [10] worked out at 2.

In the case of `COc1ccc2c(c1OC)CO[C@@H]2[C@H]1c2c(cc3c(c2OC)OCO3)CCN1C(CN=C=S)c1cccnc1` (some centres undefined), the half-inhibitory concentration (IC50) in [1] was determined as 2700 nM; in the data set on Trypanosoma cruzi [11], 1900 nM; with Leishmania donovani [3], 900 nM; in the data set on L6, 7100 nM; in the data set on Plasmodium falciparum [4] it was 2500 nM. The figures for the inhibition at 2 µg/mL (with Trypanosoma cruzi [2]; in data set [8]) were 100% and over 50%, respectively. The selectivity ratio at 72 h was determined as 2.6 in data set [5], 3.8 in data set [12], 8 in data set [6] and 2.9 in data set [7]. Further, in the data set with Leishmania donovani [9], the “inhibition (INH)” value is over 90%.

As for `COc1ccc2c(c1OC)CO[C@@H]2[C@H]1c2c(cc3c(c2OC)OCO3)CCN1[C@@H](CN)c1ccc(F)cc1`, the IC50 came to 1300 nM in [1], 10600 nM in the data set on Trypanosoma cruzi [11], 38800 nM in the data set with L6 and 2700 nM with Plasmodium falciparum [4]. Further, the figures for the inhibition at 2 µg/mL (in the data set on Trypanosoma cruzi [2]; in data set [8]) were 53% and over 50%, respectively. Also, the selectivity ratio at 72 h in data set [5] is 29.3; in data set [12], 3.7; in data set [7], 14.5.

As for `COc1ccc([C@H](O)[C@H]2c3c(cc4c(c3OC)OCO4)CCN2C)c(CO)c1OC`, the IC50 in the data set with Plasmodium falciparum [13] was determined as 8000 nM.

As to `CNCCc1c([C@H]2[C@H]3[C@H](C=C(C)CC3(C)C)c3c(CCNC)c4ccccc4n32)[nH]c2ccccc12`, in [14], the half-inhibitory concentration (IC50) was determined as 2800 nM.

As for `CC(C)=C[C@H]1C[C@H](/C=C/c2[nH]c3ccccc3c2CCN(C)C)n2c1c(CCN(C)C)c1ccccc12`, the IC50 in data set [14] was 6200 nM.

As to `O=C(Cn1ccnc1[N+](=O)[O-])NCc1ccccc1` [BENZNIDAZOLE], the figures for the IC50 in the data set on Trypanosoma cruzi [11] and with L6 were 2410 nM and over 380000 nM, respectively. The results for the selectivity ratio at 72 h in data set [12] and in [6] were over 158 and 196, respectively.

With `COc1ccc2c(c1OC)CO[C@@H]2[C@H]1c2c(cc3c(c2OC)OCO3)CCN1C(CN=C=S)c1ccc2c(c1)Cc1ccccc1-2` (some centres undefined), the IC50 was determined as 6500 nM in [1], 1300 nM with Leishmania donovani [3], 3900 nM with L6 and 2600 nM in the data set with Plasmodium falciparum [4]. Also, the inhibition entry with Trypanosoma cruzi [2] is “inactive”. The selectivity ratio at 72 h in data set [5] was 0.6; in [6], 3.1; in data set [7], 1.5. In [8], the inhibition at 2 µg/mL was over 50%. In addition, the “inhibition (INH)” value with Leishmania donovani [9] is listed as over 90%.

On to `COc1ccc2c(c1OC)CO[C@@H]2[C@H]1c2c(cc3c(c2OC)OCO3)CCN1[C@@H](CN=C=S)c1ccc(F)cc1`, for which the IC50 in [1] was 1700 nM; in the data set on Leishmania donovani [3], 800 nM; in the data set on L6, 13600 nM; in the data set on Plasmodium falciparum [4], 2100 nM. Further, the inhibition entry in the data set on Trypanosoma cruzi [2] was “inactive”. The selectivity ratio at 72 h is 8 in [5], 17.5 in data set [6] and 6.5 in data set [7]. The inhibition at 2 µg/mL in [8] is over 50%. For the same compound, the “inhibition (INH)” value in the data set on Leishmania donovani [9] is over 90%.
